The values that follow come from ChEMBL document CHEMBL1201862, “PubChem BioAssay data set” (2004).

Among the test systems are SR; SNB-19; NCI-H23; EKVX; COLO 205; M14; OVCAR-8; HCT-15; OVCAR-3; SF-295; RXF 393; A498; HCC 2998; HOP-62; UACC-62; HOP-92; HCT-116; SNB-75; Malme-3M.
Holding throughout (test): NCI tumour cell line growth inhibition, 48 h

Each structure is given as a SMILES string.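 Test compounds were applied to cells in 96-well plates for 48 hours at 5 doses. GI50 marks 50% less growth.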 Activity calls are given as the source filed them. No stated cut-off is given here; in the data, active = GI50 up to about 1.1 µM and inactive = higher.

With `COc1ccc2c3c([nH]c2c1[N+](=O)[O-])C(C)N(C(=O)/C=C/c1ccccc1)CC3` (stereo unspecified), the GI50 in the test on SR is 3.92 µM (inactive); in the test on SNB-19 it was 36.9 µM (inactive); in the test with NCI-H23 it was 25.5 µM (inactive); in the test with EKVX it was 16.6 µM (inactive); with COLO 205, 3.46 µM (inactive); in the test with M14 it was 5.92 µM (inactive). Besides, the GI50 in the test on OVCAR-8 was 3.91 µM (inactive); with HCT-15, 5.71 µM; in the test on OVCAR-3, 4.8 µM (inactive); in the test on SF-295, 2.42 µM (inactive); in the test with RXF 393, 3.27 µM (inactive); with A498, 2.62 µM (inactive). In addition, the GI50 in the test on HCC 2998 was 21.5 µM (inactive); with HOP-62, 5.28 µM (inactive); in the test on UACC-62 it was 2.07 µM (inactive).

On to `CCN1CCC(O)(c2ccc(C)cc2)C(C(=O)c2ccc(C)cc2)C1` (stereo unspecified), for which the GI50 in the test on SR was 23.9 µM (inactive); in the test with SNB-19, > 80.7 µM (inactive); in the test with HOP-92, 19.7 µM (inactive); in the test with NCI-H23 it was > 40 µM (inactive); in the test with EKVX, 17.3 µM (inactive); in the test on COLO 205 it was 23.6 µM (inactive). The GI50 is 36.7 µM (inactive) in the test on M14; 25.5 µM (inactive) in the test with OVCAR-8; 16.7 µM (inactive) with HCT-116; 19.6 µM in the test on HCT-15; 71.9 µM (inactive) in the test on SNB-75; 21.9 µM (inactive) in the test on OVCAR-3. For the same compound, the GI50 in the test on SF-295 is > 100 µM (inactive); in the test on A498, > 59.2 µM (inactive); in the test with Malme-3M it was 19.5 µM (inactive); with HCC 2998, 52.4 µM (inactive); with HOP-62, > 100 µM (inactive); with UACC-62, > 42.6 µM (inactive).

In the case of `COc1cc(C=O)c(-c2c(C=O)ccc3c2OCO3)c(OC)c1OC`, the GI50 in the test with SR was 29.6 µM (inactive); with SNB-19, 49.8 µM (inactive); with NCI-H23, > 100 µM (inactive); in the test on EKVX it was > 100 µM (inactive); in the test with COLO 205, 64.9 µM (inactive); with M14, 74.1 µM (inactive). In addition, the GI50 with OVCAR-8 was > 100 µM (inactive); in the test on HCT-116 it was > 100 µM (inactive); in the test with HCT-15, 80.4 µM; in the test on SNB-75, 55.2 µM (inactive); in the test on OVCAR-3 it was 72.6 µM (inactive); with SF-295, 60.4 µM (inactive). In addition, the GI50 was > 100 µM (inactive) in the test with A498; 67.3 µM (inactive) in the test on Malme-3M; > 100 µM (inactive) in the test with HCC 2998; > 100 µM (inactive) with HOP-62; 62.5 µM (inactive) with UACC-62.

`c1cnn(CN(Cn2cccn2)Cn2cccn2)c1`: the GI50 in the test with SR, in the test on SNB-19, in the test on HOP-92, with NCI-H23, with EKVX and in the test with COLO 205 was > 100 µM (inactive) throughout. The GI50 is > 100 µM (inactive) in the test on M14; > 100 µM (inactive) in the test on OVCAR-8; > 100 µM (inactive) with HCT-116; > 100 µM with HCT-15; > 100 µM (inactive) in the test with SNB-75; > 100 µM (inactive) in the test on OVCAR-3. The GI50 with SF-295 is > 100 µM (inactive); in the test with RXF 393 it was > 100 µM (inactive); in the test with A498, > 100 µM (inactive); in the test on HOP-62, > 100 µM (inactive); in the test on UACC-62 it was 35.9 µM (inactive).

Take `CC1(CO)OC(n2cc(C(=O)NC(=O)OCc3ccccc3)c(=O)[nH]c2=O)CC1O` (stereo unspecified): the GI50 with SR, in the test on SNB-19, in the test with HOP-92, in the test on NCI-H23, with COLO 205 and in the test with M14 was > 100 µM (inactive) in each case. For the same compound, the GI50 in the test on OVCAR-8 is > 100 µM (inactive); with HCT-116, > 100 µM (inactive); in the test on HCT-15, > 100 µM; in the test with SNB-75, 84.5 µM (inactive); in the test on OVCAR-3, > 100 µM (inactive); with SF-295, > 100 µM (inactive). Moreover, the GI50 with A498, in the test on Malme-3M, in the test with HOP-62 and in the test on UACC-62 was > 100 µM (inactive) in each case.

For `COc1cc(Nc2cnc3cc(N)ccc3n2)cc(OC)c1OC`, the GI50 is 44.1 µM (inactive) in the test on SR; > 100 µM (inactive) in the test with SNB-19; > 100 µM (inactive) in the test with HOP-92; > 100 µM (inactive) in the test on NCI-H23; 58.6 µM (inactive) in the test with EKVX; > 100 µM (inactive) in the test on COLO 205. For the same compound, the GI50 with M14 is 98.6 µM (inactive); with OVCAR-8, 78.2 µM (inactive); in the test with HCT-116, > 100 µM (inactive); in the test with HCT-15, 55.2 µM; with SNB-75 it was > 100 µM (inactive); with OVCAR-3, 53.8 µM (inactive). Moreover, the GI50 in the test with SF-295 is 72.4 µM (inactive); in the test with A498, > 100 µM (inactive); with Malme-3M it was > 100 µM (inactive); with HCC 2998, 50.1 µM (inactive); with HOP-62 it was 97.7 µM (inactive); in the test with UACC-62 it was 64.4 µM (inactive).

As to `CC(C)CCCC(C)C1CCC2C3CC([N+](=O)[O-])=C4CC(O)CCC4(C)C3CCC12C` (stereo unspecified), the GI50 with SR was 15 µM (inactive); in the test on HOP-92, 23.3 µM (inactive); with NCI-H23, 22.7 µM (inactive); in the test on EKVX it was 27 µM (inactive); with COLO 205, 24.3 µM (inactive); in the test on M14, 13.4 µM (inactive). Also, the GI50 in the test on OVCAR-8 was 21.7 µM (inactive); with HCT-116 it was 14.8 µM (inactive); with HCT-15, 17.3 µM; in the test on SNB-75, 17.1 µM (inactive); in the test on OVCAR-3, 23.9 µM (inactive); in the test on SF-295 it was 14.2 µM (inactive). Also, the GI50 in the test on RXF 393 was 23.6 µM (inactive); in the test on A498, 21.8 µM (inactive); with Malme-3M it was 19.8 µM (inactive); with HCC 2998, 20.2 µM (inactive); in the test with HOP-62, 19.9 µM (inactive); in the test with UACC-62, 19.9 µM (inactive).

Regarding `C/C(CCn1[nH]c(=O)ccc1=O)=N\N=C(N)N`, the GI50 with SR, with SNB-19, in the test with HOP-92, with NCI-H23, in the test with EKVX and in the test on M14 was > 100 µM (inactive) throughout. Besides, the GI50 in the test with OVCAR-8 is > 100 µM (inactive); with HCT-116, > 100 µM (inactive); in the test on HCT-15, > 100 µM; in the test with SNB-75 it was > 100 µM (inactive); in the test with OVCAR-3, > 100 µM (inactive); with SF-295 it was > 100 µM (inactive). For the same compound, the GI50 with RXF 393, with A498, in the test with Malme-3M, in the test with HCC 2998, in the test on HOP-62 and with UACC-62 was > 100 µM (inactive) throughout.

As to `Cn1c(NC(=O)NC23CC4CC(CC(C4)C2)C3)nc2ccccc21`, the GI50 in the test with SR was > 100 µM (inactive); in the test with SNB-19, 95.1 µM (inactive); with HOP-92, 25.5 µM (inactive); in the test with NCI-H23, > 100 µM (inactive); with EKVX, 83.8 µM (inactive); in the test with COLO 205 it was > 100 µM (inactive). Also, the GI50 with M14 is 47.8 µM (inactive); in the test on OVCAR-8, > 100 µM (inactive); in the test with HCT-116, 15.3 µM (inactive); in the test with HCT-15 it was > 100 µM; in the test with SNB-75, 3.94 µM (inactive); in the test with OVCAR-3, > 100 µM (inactive). Further, the GI50 with SF-295 was 12.6 µM (inactive); with RXF 393, 15.7 µM (inactive); in the test on Malme-3M, 17.5 µM (inactive); in the test on HCC 2998, > 100 µM (inactive); with HOP-62 it was 30.5 µM (inactive); with UACC-62, 40.1 µM (inactive).

Turning to `Nc1ccc(C(=O)NN2C(=O)C(Cl)C2c2cc(Br)cc(Br)c2O)cc1` (stereo unspecified), the GI50 in the test with SR was 24.3 µM (inactive); with SNB-19, 34.1 µM (inactive); with HOP-92, 24.2 µM (inactive); in the test with NCI-H23, 12.4 µM (inactive); in the test on EKVX it was 4.62 µM (inactive); with COLO 205, 48.1 µM (inactive). Also, the GI50 in the test with M14 is 12.8 µM (inactive); with OVCAR-8 it was 14.7 µM (inactive); in the test with HCT-116 it was 6.79 µM (inactive); with HCT-15, 3.78 µM; in the test on SNB-75 it was 18 µM (inactive); with OVCAR-3, 2.43 µM (inactive). In addition, the GI50 in the test on SF-295 was 10.3 µM (inactive); with RXF 393 it was 13.3 µM (inactive); in the test with Malme-3M it was 17.3 µM (inactive); in the test on HCC 2998, 16.8 µM (inactive); in the test on HOP-62, 12.1 µM (inactive); with UACC-62, 4.44 µM (inactive).

As for `O=[N+]([O-])c1ccc(C2=NN(c3ccccc3)C[N+](c3ccc(Br)cc3)=N2)cc1`, the GI50 in the test on SR was 96.8 µM (inactive); in the test with SNB-19, > 100 µM (inactive); in the test on HOP-92, 78.7 µM (inactive); in the test with NCI-H23, 70.6 µM (inactive); with EKVX, > 100 µM (inactive); with COLO 205 it was > 100 µM (inactive). Further, the GI50 was > 100 µM (inactive) with M14; > 100 µM (inactive) in the test with OVCAR-8; 89.5 µM (inactive) with HCT-116; > 100 µM in the test on HCT-15; > 100 µM (inactive) with SNB-75; 75.5 µM (inactive) in the test on SF-295. Besides, the GI50 is 31.1 µM (inactive) in the test on RXF 393; > 100 µM (inactive) in the test with A498; > 100 µM (inactive) in the test on Malme-3M; 41.6 µM (inactive) in the test with HCC 2998; > 100 µM (inactive) with HOP-62; > 100 µM (inactive) with UACC-62.
